Experiments:
[1] = tested on: various kinds of bacteria; experiment: Antibacterial activity (overall statement); format: cell-based; settings: Table VI
Text: (§1) Using 6DCNU and 6MCαG, minimum inhibiting concentrations (referred to as "MIC") for various kinds of bacteria were estimated by means of the broth-dilution method.

Shigella sonnei = experiment: Antibacterial activity, broth-dilution method; format: cell-based
Text: as §1

[2] = known compounds, generally seen; cited from earlier work

Row | Compound | antibacterial activity, in words [1] | MIC (Shigella sonnei) | diabetogenic activity, decreasing order [2]
1 | O=NN(CCCl)C(=O)NC[C@H]1OC(O)[C@H](O)[C@@H](O)[C@@H]1O (stereo partly drawn) [Example 6DCNU, 3-(D-glucopyranos-6-yl)-1-(2-chloroethyl)-1-nitrosourea] | no substantial antibacterial activity | > 200 µg/mL | 
2 | CO[C@H]1O[C@H](CNC(=O)N(CCCl)N=O)[C@@H](O)[C@H](O)[C@H]1O [Example 6MCαG, 1-(2-chloroethyl)-3-(methyl α-D-glucopyranos-6-yl)-1-nitrosourea] |  | > 200 µg/mL | SZ>DCNU>GANU> 2MCαG≈6MCαG

From patent publication US4156777A, “Process for producing glucopyranose-nitrosourea compounds and novel compounds included therein” (Tokyo Tanabe Company, Limited, priority 1977, dated 1979)
